In paper PMC7699381, “Rare-Earth Metal Complexes of the Antibacterial Drug Oxolinic Acid: Synthesis, Characterization, DNA/Protein Binding and Cytotoxicity Studies” (Molecules, 2020):

Experiments:
Apo-transferrin (apo-Tf) = molecular target: T1, Apo-transferrin (apo-Tf) (Homo sapiens, UniProt P02787); assay: Fluorescence quenching of apo-transferrin; format: binding; conditions: for quenching effect on apo-Tf fluorescence peak / Ksv (Stern-Volmer constant), apo-Tf: 1 µM apo-Tf; for quenching effect on apo-Tf fluorescence peak: compound up to 8 µM, λex 295 nm; for Ka (association binding constant), apo-Tf / n (Hill Coefficient), apo-Tf / n (Number of Binding Sites), apo-Tf / Ksv (Stern-Volmer constant), apo-Tf / Kq (bimolecular quenching constant), apo-Tf / fa (fraction of fluorophore accessible to the quencher), apo-Tf / Kd: 298 K; for Ksv (Stern-Volmer constant), apo-Tf: 0–8 µM compound, pH 7.4; for Kq (bimolecular quenching constant), apo-Tf: from KSV = Kq τ0; for fa (fraction of fluorophore accessible to the quencher), apo-Tf: modified Stern-Volmer; for Kd: read-out: Kd, apo-Tf
T1 construct: purchased Sigma Aldrich Chemical Co. (Schnelldorf, Germany)

[1] = tested on: HUVEC (normal human umbilical vein endothelial cells); assay: MTS cytotoxicity assay, HUVEC normal cells; format: cell-based; conditions: 48 h of incubation
Method: (§1) For the evaluation of the cytotoxic effects of the complexes and ligand two human cancer cell lines were used, namely MDA-MB 231 (human breast adenocarcinoma) and LoVo (human colon adenocarcinoma); a normal cell line, human umbilical vein endothelial cells (HUVEC), was used as a reference. […] After 24 h and 48 h, respectively, cell viability was evaluated through MTS assay (data shown in Figures S16–S18) and the IC50 values were calculated (Table 5). The cytotoxicity assay is based on the ability of metabolically active cells to reduce MTS, a yellow tetrazolium salt, to the colored formazan, soluble in the culture medium; the concentration of formazan can be spectrophotometrically determined. […] PES is a cationic dye with high chemical stability that binds to MTS and forms a stable solution. […] The reduced MTS to formazan was spectrophotometrically measured at λ = 492 nm. The test was run on two cancer cell lines, LoVo and MDA-MB 231, and on a normal cell line, HUVEC. […] Cell viability data were obtained in triplicate (n = 3) and expressed as mean values ± standard deviations (SD). […] All assays were performed in 96-well microtiter plates with flat bottom (Falcon), using CellTiter 96 Aqueous One Solution Cell Proliferation Assay (Promega), an MTS-based colorimetric assay. The formazan was spectrophotometrically measured using the Tecan GENios Spectrophotometer.

[2] = molecular target: T2, Human serum albumin (HSA) (Homo sapiens, UniProt P02768); assay: Fluorescence quenching of human serum albumin; conditions: for quenching effect on HSA fluorescence peak / Ksv (Stern-Volmer constant), HSA: 2.5 µM HSA; for quenching effect on HSA fluorescence peak: compound up to 8 µM, λex 280 nm; for Ka (association binding constant), HSA / n (Hill Coefficient), HSA / n (Number of Binding Sites), HSA / Ksv (Stern-Volmer constant), HSA / Kq (bimolecular quenching constant), HSA / fa (fraction of fluorophore accessible to the quencher), HSA: 298 K; for Ksv (Stern-Volmer constant), HSA: 0–8 µM compound, pH 7.4; for Kq (bimolecular quenching constant), HSA: from KSV = Kq τ0; for fa (fraction of fluorophore accessible to the quencher), HSA: modified Stern-Volmer
EB-DNA system (CT-DNA) = assay: Competitive binding assay with ethidium bromide (EB) through fluorescence spectroscopy; parameters: species or system calf; conditions: 10 µM CT-DNA, 2 µM EB; for Ksv (Stern-Volmer quenching constant, EB-DNA system): 0–40 µM compound, λex 500 nm; for K50 (EB Displacement Assay): concentration corresponding to 50% binding
From the text: The manner of binding to the DNA macromolecule can be investigated through competitive binding studies with ethidium bromide (3,8-diamino-5-ethyl-6-phenylphenanthridinium bromide), a fluorescent dye; due to its aromatic ring, it can intercalate between two adjacent base pairs in the DNA structure and form a complex which emits fluorescent light; displacing EB results in a quenching effect. The Stern-Volmer constant (KSV) and the dissociation constant (K50) have been calculated from the resulting data.
Competitive binding studies were carried out on a Jasco FP 6500 fluorometer at room temperature, using quartz cells of 1 cm path-length. The fluorescence spectra were recorded on 1.6 mL samples containing 10 µM CT-DNA and 2 µM EB in the absence and presence of increasing amounts (0–40 µM with an increment of 5 µM) of complexes and free ligands, respectively, after being kept in contact for 10 min at room temperature, under continuous stirring and in the dark. The excitation wavelength used was 500 nm and the spectra was recorded in the 520–800 nm range. Two control samples were used, the first one containing DMSO, DNA and EB and the second one just the complex.
Data from the assay can be interpreted using the classical Stern-Volmer equation (Equation (3)):(3) F0/F=1+ KSV·[Q] where F0 and F are the fluorescence intensities of the EB-DNA samples in the absence and presence of the tested compounds and [Q] is the concentration of the compound; KSV is the Stern-Volmer constant and can be calculated from the plot of F0/F vs. [Q] as the slope.
The ratio of binding relative to the control sample exposed only to DMSO was plotted against the logarithm of concentration. The data points were fitted using the modified Hill function with offset (Origin®) (Equation (4)):(4) y=A1+(A2−A1)×x^n/K50^n+x^n where y is the ratio of binding (F/F0) and x is the concentration, A1 is the minimum of y values, A2 is the maximum of y values, K50 is the concentration corresponding to 50% binding and n is the Hill coefficient.

[3] = tested on: LoVo (human colon adenocarcinoma); assay: MTS cytotoxicity assay, LoVo cells; format: cell-based; conditions: 48 h of incubation
Method: as §1

[4] = tested on: MDA-MB 231 (human breast adenocarcinoma); assay: MTS cytotoxicity assay, MDA-MB 231 cells; format: cell-based; conditions: 48 h of incubation
Method: as §1

[5] = molecular target: T2, Human serum albumin (HSA)
[6] = tested on: CT-DNA (double-stranded calf-thymus DNA); assay: DNA binding by UV-Vis spectra (titration with CT-DNA); conditions: 20 µM compound, 0–40 µM DNA, Tris-HCl pH 7.4, room temperature

T1 sequence (P02787 20-698): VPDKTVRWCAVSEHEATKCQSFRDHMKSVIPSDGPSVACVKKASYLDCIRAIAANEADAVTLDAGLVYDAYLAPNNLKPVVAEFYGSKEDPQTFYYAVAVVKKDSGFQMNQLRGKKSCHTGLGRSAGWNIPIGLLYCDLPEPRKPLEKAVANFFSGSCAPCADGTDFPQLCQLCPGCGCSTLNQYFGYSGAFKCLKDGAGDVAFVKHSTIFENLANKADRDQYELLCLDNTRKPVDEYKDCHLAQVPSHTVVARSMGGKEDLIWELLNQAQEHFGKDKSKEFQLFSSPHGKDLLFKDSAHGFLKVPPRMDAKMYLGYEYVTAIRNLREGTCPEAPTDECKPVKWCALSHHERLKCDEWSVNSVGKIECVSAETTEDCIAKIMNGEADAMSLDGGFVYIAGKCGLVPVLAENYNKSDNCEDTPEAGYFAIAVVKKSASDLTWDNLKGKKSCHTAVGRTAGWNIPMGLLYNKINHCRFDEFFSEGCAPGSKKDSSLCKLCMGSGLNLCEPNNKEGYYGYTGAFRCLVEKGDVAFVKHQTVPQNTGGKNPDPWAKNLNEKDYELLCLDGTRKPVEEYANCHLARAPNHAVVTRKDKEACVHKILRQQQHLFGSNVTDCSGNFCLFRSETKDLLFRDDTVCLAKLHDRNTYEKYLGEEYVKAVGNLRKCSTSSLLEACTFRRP
T2 sequence (P02768 25-609): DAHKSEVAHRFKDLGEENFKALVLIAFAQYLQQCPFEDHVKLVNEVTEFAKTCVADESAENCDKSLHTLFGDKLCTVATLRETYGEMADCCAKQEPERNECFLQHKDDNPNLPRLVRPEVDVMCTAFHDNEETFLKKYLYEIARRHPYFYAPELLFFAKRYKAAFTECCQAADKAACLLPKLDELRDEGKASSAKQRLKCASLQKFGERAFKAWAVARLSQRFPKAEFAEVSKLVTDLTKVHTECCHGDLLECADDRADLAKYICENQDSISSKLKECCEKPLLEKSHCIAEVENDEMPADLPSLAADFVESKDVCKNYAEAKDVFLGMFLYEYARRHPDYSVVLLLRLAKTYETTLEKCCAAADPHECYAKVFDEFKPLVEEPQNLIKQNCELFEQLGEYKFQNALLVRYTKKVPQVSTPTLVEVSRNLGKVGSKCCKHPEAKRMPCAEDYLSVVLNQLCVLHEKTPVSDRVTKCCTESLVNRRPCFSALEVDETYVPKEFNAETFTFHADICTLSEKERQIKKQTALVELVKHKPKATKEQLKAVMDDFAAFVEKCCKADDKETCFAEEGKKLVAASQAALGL

Row | Compound | Ka (association binding constant), apo-Tf (Apo-transferrin (apo-Tf)) | n (Hill Coefficient), apo-Tf (Apo-transferrin (apo-Tf)) | n (Number of Binding Sites), apo-Tf (Apo-transferrin (apo-Tf)) | Ksv (Stern-Volmer constant), apo-Tf (Apo-transferrin (apo-Tf)) | Kq (bimolecular quenching constant), apo-Tf (Apo-transferrin (apo-Tf)) [M⁻¹ s⁻¹] | fa (fraction of fluorophore accessible to the quencher), apo-Tf (Apo-transferrin (apo-Tf)) | Kd (Apo-transferrin (apo-Tf)) [µM] | IC50 [1] [µM] | Ka (association binding constant), HSA [2] | n (Hill Coefficient), HSA [2] | n (Number of Binding Sites), HSA [2] | Ksv (Stern-Volmer constant), HSA [2] | Kq (bimolecular quenching constant), HSA [2] [M⁻¹ s⁻¹] | fa (fraction of fluorophore accessible to the quencher), HSA [2] | Ksv (Stern-Volmer quenching constant, EB-DNA system) (EB-DNA system (CT-DNA)) | K50 (EB Displacement Assay) (EB-DNA system (CT-DNA)) [µM] | IC50 [3] [µM] | IC50 [4] [µM] | Kd [5] [µM] | Kb (DNA binding constant) [6] | other results
1 | CCn1cc(C(=O)[O][Eu]([OH])[O]C(=O)c2cn(CC)c3cc4c(cc3c2=O)OCO4)c(=O)c2cc3c(cc21)OCO3.O [Eu oxo, [Eu(oxo)(OH)(H2O)]] | (2.74 ± 0.41) × 10^4 M^−1 | 0.95 ± 0.21 | 0.88 ± 0.01 | (16.55 ± 0.94) × 10^4 M^−1 | 1.655e+13 | 0.81 ± 0.02 | 8.27 ± 4.17 | > 200 | (4.75 ± 0.80) × 10^5 M^−1 | 1.33 ± 0.18 | 1.11 ± 0.01 | 11.25 (± 0.92) × 10^4 M^−1 | 1.125e+13 | 0.94 ± 0.04 | (1.26 ± 0.02) × 10^4 | 40.15 ± 11.82 | 107 ± 16 | 73.7 ± 19.8 | 5.56 ± 0.86 | 10.72 (± 2.47) × 10^5 L∙mol^−1 | quenching effect on apo-Tf fluorescence peak (Apo-transferrin (apo-Tf)): 50%; quenching effect on HSA fluorescence peak [2]: ~ 58%; Ksv (Stern-Volmer constant), HSA ([2]; listed as Eu-oxo): (11.25 ± 0.92) × 10^4 M^−1
2 | CCn1cc(C(=O)[O][La]([OH])[O]C(=O)c2cn(CC)c3cc4c(cc3c2=O)OCO4)c(=O)c2cc3c(cc21)OCO3.O [La oxo, [La(oxo)(OH)(H2O)]] | (0.53 ± 0.23) × 10^4 M^−1 | 1.71 ± 0.21 | 0.77 ± 0.03 | (14.13 ± 1.46) × 10^4 M^−1 | 1.413e+13 | 0.68 ± 0.03 | 8.89 ± 2.11 | > 200 | (5.80 ± 2.01) × 10^5 M^−1 | 1.74 ± 0.21 | 1.14 ± 0.02 | (6.82 ± 0.74) × 10^4 M^−1 | 6.82e+12 | 1.26 ± 0.11 | 1.27 (±0.03) × 10^4 | 37.05 ± 8.86 | 52.1 ± 5.54 | > 100 | 6.22 ± 1.05 | 2.57 (± 0.17) × 10^5 L∙mol^−1 | Ksv (Stern-Volmer quenching constant, EB-DNA system) (EB-DNA system (CT-DNA); listed as La-oxo): (1.27 ± 0.03) × 10^4
3 | CCn1cc(C(=O)[O][Sm]([OH])[O]C(=O)c2cn(CC)c3cc4c(cc3c2=O)OCO4)c(=O)c2cc3c(cc21)OCO3.O.O [Sm oxo, [Sm(oxo)(OH)(H2O)] · H2O] | (4.16 ± 1.09) × 10^4 M^−1 | 2.03 ± 0.32 | 0.95 ± 0.02 | (9.34 ± 0.66) × 10^4 M^−1 | 9.34e+12 | 0.85 ± 0.05 | 5.73 ± 0.55 | > 200 | (4.28 ± 2.12) × 10^5 M^−1 | 1.55 ± 0.37 | 1.11 ± 0.04 | (6.56 ± 0.90) × 10^4 M^−1 | 6.56e+12 | 1.44 ± 0.15 | (1.21 ± 0.03) × 10^4 | 41.55 ± 19.32 | 41.5 ± 15.3 | 40.4 ± 6.27 | 4.69 ± 0.87 | 9.33 (± 1.46) × 10^4 L∙mol^−1 | 
4 | [Tb(oxo)(OH)(H2O)] · 0.5 H2O [Tb oxo] | (1.28 ± 0.17) × 10^4 M^−1 | 1.57 ± 0.33 | 0.81 ± 0.01 | 19.45 (± 1.10) × 10^4 M^−1 | 1.945e+13 | 0.77 ± 0.01 | 5.57 ± 1.22 | > 200 | 6.83(±1.33) × 10^5 M^−1 | 1.58 ± 0.20 | 1.18 ± 0.01 | (2.84 ± 0.70) × 10^4 M^−1 | 2.84e+12 | 2.13 ± 0.45 | (1.18 ± 0.00) × 10^4 | 20.28 ± 1.15 | 40.6 ± 7.43 | > 200 | 5.97 ± 0.89 |  | quenching effect on apo-Tf fluorescence peak (Apo-transferrin (apo-Tf)): 47.62%; Ksv (Stern-Volmer constant), apo-Tf (Apo-transferrin (apo-Tf); listed as Tb-oxo): (19.45 ± 1.10) × 10^4 M^−1; quenching effect on HSA fluorescence peak [2]: 52.63%; Ka (association binding constant), HSA ([2]; listed as Tb-oxo): (6.83 ± 1.33) × 10^5 M^−1
